From paper PMC6189519, “Evaluation of the DREAM Technique for a High-Throughput Deorphanization of Chemosensory Receptors in Drosophila” (Frontiers in Molecular Neuroscience, 2018) come the findings set out here.

Common to all, as to assay: single sensillum recording of the wild-type OSN expressing the receptor
One assay addresses T1, Or19a (Drosophila melanogaster, UniProt Q9I816).
T1 construct: native full-length receptor in olfactory sensory neurons (ai2 sensillum) of wild-type flies; paralogue Or19b may be co-expressed; with Odorant receptor coreceptor
T1 sequence (Q9I816 1-387): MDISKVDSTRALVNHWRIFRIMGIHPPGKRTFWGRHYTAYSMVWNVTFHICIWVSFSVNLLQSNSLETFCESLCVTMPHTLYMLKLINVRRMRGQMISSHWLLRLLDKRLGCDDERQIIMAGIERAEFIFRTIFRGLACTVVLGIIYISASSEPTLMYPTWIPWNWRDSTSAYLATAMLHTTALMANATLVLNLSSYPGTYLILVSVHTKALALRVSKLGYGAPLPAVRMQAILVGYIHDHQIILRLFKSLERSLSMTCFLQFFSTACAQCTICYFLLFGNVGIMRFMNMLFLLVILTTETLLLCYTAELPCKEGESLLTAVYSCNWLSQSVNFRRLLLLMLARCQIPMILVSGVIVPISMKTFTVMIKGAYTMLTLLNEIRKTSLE
T1 sequence (Q9VNB5 1-486 partner): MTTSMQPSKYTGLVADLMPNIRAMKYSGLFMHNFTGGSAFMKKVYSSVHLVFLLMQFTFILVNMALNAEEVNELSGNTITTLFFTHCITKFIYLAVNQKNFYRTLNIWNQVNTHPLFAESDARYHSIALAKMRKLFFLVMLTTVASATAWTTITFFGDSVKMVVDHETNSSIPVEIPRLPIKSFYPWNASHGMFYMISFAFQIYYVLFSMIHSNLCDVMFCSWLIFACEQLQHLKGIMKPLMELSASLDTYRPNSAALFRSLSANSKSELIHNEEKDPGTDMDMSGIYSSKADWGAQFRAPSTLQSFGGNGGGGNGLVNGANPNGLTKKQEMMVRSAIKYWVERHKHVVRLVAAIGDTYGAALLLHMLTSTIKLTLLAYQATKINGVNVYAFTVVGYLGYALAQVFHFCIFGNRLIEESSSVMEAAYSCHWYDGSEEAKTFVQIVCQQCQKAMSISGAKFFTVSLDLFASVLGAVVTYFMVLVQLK
The following applies: odorant dilution 10^-1 in hexane, 0.5 s stimulus.

For a further assay, the target named is T2, Or22a (Drosophila melanogaster, UniProt P81909).
T2 construct: native full-length receptor in olfactory sensory neurons (ab3A) of wild-type flies; Or22b may be co-expressed; with Odorant receptor coreceptor
T2 sequence (P81909 1-397): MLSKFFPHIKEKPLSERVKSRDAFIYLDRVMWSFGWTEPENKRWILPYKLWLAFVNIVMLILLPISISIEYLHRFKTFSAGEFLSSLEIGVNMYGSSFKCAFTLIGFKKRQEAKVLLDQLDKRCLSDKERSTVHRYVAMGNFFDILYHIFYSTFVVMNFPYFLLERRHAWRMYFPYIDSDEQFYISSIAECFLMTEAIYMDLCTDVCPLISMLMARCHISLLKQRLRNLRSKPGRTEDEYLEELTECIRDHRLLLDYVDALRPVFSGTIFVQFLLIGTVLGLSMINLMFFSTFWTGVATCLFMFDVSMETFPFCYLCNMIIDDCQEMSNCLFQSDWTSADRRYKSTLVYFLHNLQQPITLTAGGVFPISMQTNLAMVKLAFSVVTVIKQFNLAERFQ
T2 sequence (Q9VNB5 1-486 partner): T1 sequence (Q9VNB5 1-486 partner)
The following applies: agonist; odorant dilution 10^-1 in hexane, 0.5 s stimulus.

In another assay the target is T3, Ir31a (Drosophila melanogaster, UniProt Q8IPB8).
T3 construct: native full-length ionotropic receptor in olfactory sensory neurons of wild-type flies (single sensillum recording); with Ionotropic receptor 8a
T3 sequence (Q8IPB8 18-629): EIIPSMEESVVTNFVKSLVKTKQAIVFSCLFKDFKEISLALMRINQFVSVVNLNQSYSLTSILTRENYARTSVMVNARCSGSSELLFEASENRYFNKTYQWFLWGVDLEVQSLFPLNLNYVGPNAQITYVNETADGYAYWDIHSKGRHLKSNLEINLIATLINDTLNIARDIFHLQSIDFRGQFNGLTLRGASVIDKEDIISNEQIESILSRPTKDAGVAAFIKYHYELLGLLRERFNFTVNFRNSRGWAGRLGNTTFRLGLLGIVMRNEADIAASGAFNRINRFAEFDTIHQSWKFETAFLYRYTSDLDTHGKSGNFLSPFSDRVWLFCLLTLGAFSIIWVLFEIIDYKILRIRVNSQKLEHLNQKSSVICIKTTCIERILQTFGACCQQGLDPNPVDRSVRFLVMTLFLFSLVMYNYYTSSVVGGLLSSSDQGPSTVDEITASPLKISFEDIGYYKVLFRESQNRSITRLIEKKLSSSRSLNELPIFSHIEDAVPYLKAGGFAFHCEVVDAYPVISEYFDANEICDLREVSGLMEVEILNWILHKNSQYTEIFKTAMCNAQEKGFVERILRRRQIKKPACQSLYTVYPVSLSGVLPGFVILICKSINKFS
T3 sequence (Q9W365 18-936 partner): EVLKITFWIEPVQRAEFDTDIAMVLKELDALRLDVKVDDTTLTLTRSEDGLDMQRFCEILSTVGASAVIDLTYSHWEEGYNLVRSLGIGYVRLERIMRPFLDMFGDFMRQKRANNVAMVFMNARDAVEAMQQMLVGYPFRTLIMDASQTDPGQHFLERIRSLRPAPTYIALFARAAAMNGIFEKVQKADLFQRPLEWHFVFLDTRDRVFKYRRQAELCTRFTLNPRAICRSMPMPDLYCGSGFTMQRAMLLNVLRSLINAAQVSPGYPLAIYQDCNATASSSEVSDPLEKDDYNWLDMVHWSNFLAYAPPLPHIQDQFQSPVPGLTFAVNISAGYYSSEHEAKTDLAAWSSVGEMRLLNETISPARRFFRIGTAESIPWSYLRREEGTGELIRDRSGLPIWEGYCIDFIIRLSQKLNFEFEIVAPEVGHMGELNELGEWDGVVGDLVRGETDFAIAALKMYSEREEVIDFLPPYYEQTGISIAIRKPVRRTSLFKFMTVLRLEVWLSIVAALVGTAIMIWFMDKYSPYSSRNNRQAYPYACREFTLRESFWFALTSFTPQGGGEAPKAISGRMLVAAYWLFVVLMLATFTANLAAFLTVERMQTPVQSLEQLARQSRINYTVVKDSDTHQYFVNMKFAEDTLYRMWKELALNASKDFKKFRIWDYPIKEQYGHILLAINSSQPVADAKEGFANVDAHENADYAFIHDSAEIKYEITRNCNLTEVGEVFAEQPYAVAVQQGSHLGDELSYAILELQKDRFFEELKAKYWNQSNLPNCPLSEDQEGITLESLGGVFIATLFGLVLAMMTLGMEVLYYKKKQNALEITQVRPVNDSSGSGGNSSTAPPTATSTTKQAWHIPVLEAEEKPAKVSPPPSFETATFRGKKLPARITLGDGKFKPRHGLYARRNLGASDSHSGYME
The following applies: agonist (best ligand); odorant dilution 10^-1 in hexane, 0.5 s stimulus.

In the next assay the target is T4, Or49b (Drosophila melanogaster, UniProt Q9V6H2).
T4 construct: native full-length receptor in olfactory sensory neurons (ab6B) of wild-type flies (single sensillum recording); with Odorant receptor coreceptor
T4 sequence (Q9V6H2 1-375): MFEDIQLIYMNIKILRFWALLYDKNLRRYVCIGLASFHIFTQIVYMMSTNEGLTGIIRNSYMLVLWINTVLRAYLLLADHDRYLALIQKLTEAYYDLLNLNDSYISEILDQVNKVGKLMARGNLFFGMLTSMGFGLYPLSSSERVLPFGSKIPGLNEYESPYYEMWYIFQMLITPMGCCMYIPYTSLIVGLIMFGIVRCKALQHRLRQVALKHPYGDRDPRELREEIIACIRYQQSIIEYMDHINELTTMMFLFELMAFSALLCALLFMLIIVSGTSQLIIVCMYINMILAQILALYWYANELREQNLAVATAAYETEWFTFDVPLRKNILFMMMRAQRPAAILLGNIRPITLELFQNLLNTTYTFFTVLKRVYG
T4 sequence (Q9VNB5 1-486 partner): T1 sequence (Q9VNB5 1-486 partner)
The following applies: agonist (best ligand); odorant dilution 10^-1 in hexane, 0.5 s stimulus.

`CC(=O)OC/C=C(\C)CCC=C(C)C` [geranyl acetate]: the spikes/s result at Or19a (agonist) was “OSNs expressing Or19a indeed become activated by high amounts of geranyl acetate”.

Consider `CCCC(=O)C(=O)O` [2-oxo-valeric acid], for which the spikes/s entry was “both being chemosensory receptors shown to be activated by stimulation with this odorant” at Or22a; “both being chemosensory receptors shown to be activated by stimulation with this odorant” at Ir31a; “Or19a as an OR being gated by 2-oxo-valeric acid” on Or19a (printed as gated by the odorant, direction not told).

In the case of `COc1ccccc1O` [guaiacol], the spikes/s entry at Or49b is “confirming the published ligand–receptor interaction of guaiacol and Or49b”.
